Measured values from publication PMC9204300, “Investigating the Mechanism of Inhibition of Cyclin-Dependent Kinase 6 Inhibitory Potential by Selonsertib: Newer Insights Into Drug Repurposing” (Frontiers in Oncology, 2022).

Molecular target: Cyclin-dependent kinase 6 (CDK6) (Homo sapiens, UniProt Q00534)
Test: biochemical

Sequence of Cyclin-dependent kinase 6 (CDK6) (Q00534 whole entry): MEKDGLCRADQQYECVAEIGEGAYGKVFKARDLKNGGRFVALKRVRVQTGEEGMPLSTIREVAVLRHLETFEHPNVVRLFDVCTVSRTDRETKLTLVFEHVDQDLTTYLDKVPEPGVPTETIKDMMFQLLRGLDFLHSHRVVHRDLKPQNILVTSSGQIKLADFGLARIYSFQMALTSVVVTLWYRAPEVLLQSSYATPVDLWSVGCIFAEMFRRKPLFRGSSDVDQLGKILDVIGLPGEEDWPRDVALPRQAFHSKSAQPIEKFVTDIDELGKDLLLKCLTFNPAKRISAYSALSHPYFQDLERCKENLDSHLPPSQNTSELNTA

Kd: 5.56 µM
Compound: Cc1cc(F)c(C(=O)Nc2cccc(-c3nncn3C(C)C)n2)cc1-n1cnc(C2CC2)c1 [selonsertib]
